The structures appear in SMILES notation. Like-named read-outs stand apart in the source and are kept apart here.

Twelve compounds from patent publication US20130344026A1, “Dimeric Smac Mimetics” (priority 2009, published 2013) can be followed below.

One assay concerns HCC461. Nature of the assay: cell viability assay in HCC461, compound alone. Format: cell-based.
The test system of a further assay is PANC-1 cells. The experiment in a line: cell viability assay in PANC-1 cells (compound alone, + 100 ng/ml TNFa, + 300 ng/ml TRAIL). The format is cell-based. To be noted: Tables 6-10.
The mark [1] stands for this setting: HCC461, HCC461, Tables 15-18, read-out: IC50 (uM) in cell viability assay in HCC461.
The mark [2] stands for this setting: HCC461, HCC461 cells, compound alone, read-out: IC50 (uM) in cell viability assay in HCC461.
The mark [3] stands for this setting: HCC461, HCC461, Tables 6-9, read-out: IC50 (μM) in cell viability assay in HCC461.
Where [4] appears, read: Homo sapiens, PANC-1, compound alone, read-out: IC50 (μM) in cell viability assay in PANC-1 cells: Compound alone.
The mark [5] stands for this setting: with 100 ng/ml TNFa, read-out: IC50 (μM) in cell viability assay in PANC-1 cells: Compound + 100 ng/ml TNFa.
The mark [6] stands for this setting: with 300 ng/ml TRAIL, read-out: IC50 (μM) in cell viability assay in PANC-1 cells: Compound + 300 ng/ml TRAIL.

On to `CN[C@@H](C)C(=O)N[C@@H](CC#CC#CC[C@H](NC(=O)[C@H](C)NC)C(=O)N1C[C@@H](NS(=O)(=O)c2ccccc2)C[C@H]1C(=O)N[C@@H]1CCCc2ccccc21)C(=O)N1C[C@@H](NS(=O)(=O)c2ccccc2)C[C@H]1C(=O)N[C@@H]1CCCc2ccccc21` [Compound P2-11], for which the IC50 in the assay on HCC461 (setting [1]) was determined as 0.171 µM.
Regarding `CN[C@@H](C)C(=O)N[C@H](C(=O)N1C[C@@H](NC(=O)C(C)C(C)C(=O)N[C@H]2C[C@@H](C(=O)N[C@@H]3CCCc4ccccc43)N(C(=O)[C@@H](NC(=O)[C@H](C)NC)C(C)(C)C)C2)C[C@H]1C(=O)N[C@@H]1CCCc2ccccc21)C(C)(C)C` (stereo partly shown) [Compound P3-24], the IC50 with HCC461 (setting [2]) is 0.006 µM.
In the case of `CN[C@@H](C)C(=O)N[C@@H](CC#CC#CC[C@H](NC(=O)[C@H](C)NC)C(=O)N1CSC[C@H]1C(=O)N[C@@H]1CCCc2ccccc21)C(=O)N1CSC[C@H]1C(=O)N[C@@H]1CCCc2ccccc21` [Compound P2-33], the IC50 with HCC461 (setting [1]) is 0.188 µM.
Consider `CN[C@@H](C)C(=O)N[C@H](C(=O)N1C[C@@H](NC(=O)CNCC(=O)N[C@H]2C[C@@H](C(=O)N[C@@H]3CCCc4ccccc43)N(C(=O)[C@@H](NC(=O)[C@H](C)NC)C(C)(C)C)C2)C[C@H]1C(=O)N[C@@H]1CCCc2ccccc21)C(C)(C)C` [Compound P3-35], for which the IC50 with HCC461 (setting [2]) was 0.048 µM.
Regarding `CN[C@@H](C)C(=O)N[C@H](C(=O)N1C[C@@H](NC(=O)c2cc(C(=O)N[C@H]3C[C@@H](C(=O)NCc4ccc(F)cc4)N(C(=O)[C@@H](NC(=O)[C@H](C)NC)C(C)(C)C)C3)[nH]n2)C[C@H]1C(=O)NCc1ccc(F)cc1)C(C)(C)C` [Compound P3-72], the IC50 with HCC461 (setting [2]) was 0.023 µM.
`CN[C@@H](C)C(=O)N[C@H](C(=O)N[C@H]1C[C@@H](C(=O)N[C@@H]2CCCc3ccccc32)N(C(=O)[C@@H](NC(=O)[C@H](C)NC)C(C)(C)C)C1)C(C)(C)C` [Compound 145]: the IC50 with HCC461 (setting [3]) was greater than 30 µM.
`CCC[C@H](NC(=O)[C@H](C)NC)C(=O)N1C[C@@H](NC(=O)c2cccc(C(=O)N[C@H]3C[C@@H](C(=O)N[C@@H]4CCCc5ccccc54)N(C(=O)[C@@H](NC(=O)[C@H](C)NC)C(C)(C)C)C3)c2)C[C@H]1C(=O)N[C@H](C)C(C)C` [Compound 140]: the IC50 in the assay on HCC461 (setting [3]) worked out at 0.28 µM.
In the case of `CN[C@@H](C)C(=O)N[C@H](C(=O)N1C[C@@H](n2cc(CNC(=O)NCc3cn([C@H]4C[C@@H](C(=O)N[C@@H]5CCCc6ccccc65)N(C(=O)[C@@H](NC(=O)[C@H](C)NC)C(C)(C)C)C4)nn3)nn2)C[C@H]1C(=O)N[C@@H]1CCCc2ccccc21)C(C)(C)C` [Compound P3-5], in the assay on HCC461 (setting [2]), the IC50 was 0.061 µM.
As to `CN[C@@H](C)C(=O)N[C@H](C(=O)N1CCC[C@H]1C(=O)N[C@H](CNC(=O)C1CCCC(C(=O)NC[C@@H](NC(=O)[C@@H]2CCCN2C(=O)[C@@H](NC(=O)[C@H](C)NC)C(C)(C)C)C2CCCCC2)C1)C1CCCCC1)C(C)(C)C` (single isomer, unassigned) [Compound P4-4], the IC50 in the assay on HCC461 (HCC461, Tables 15-18, read-out: IC50 (uM) in cell viability assay in HCC461) turned out to be 0.004 µM.
For `CN[C@@H](C)C(=O)N[C@H](C(=O)N1C[C@@H](NC(=O)c2cc(C(=O)N[C@H]3C[C@@H](C(=O)NC4CCCc5ccccc54)N(C(=O)[C@@H](NC(=O)[C@H](C)NC)C(C)(C)C)C3)ccc2Br)CC1C(=O)N[C@@H]1CCCc2ccccc21)C(C)(C)C` (stereo partly shown) [Compound P3-30], the IC50 in the assay on HCC461 (setting [2]) worked out at 0.013 µM.
Take `CN[C@@H](C)C(=O)N[C@H](C(=O)N1C[C@@H](NC(=O)c2cccc(C(=O)N[C@H]3C[C@@H](C(=O)NCCc4ccc(S(N)(=O)=O)cc4)N(C(=O)[C@@H](NC(=O)[C@H](C)NC)C(C)(C)C)C3)c2)C[C@H]1C(=O)NCCc1ccc(S(N)(=O)=O)cc1)C(C)(C)C` [Compound 8]: the IC50 with PANC-1 cells (setting [4]), with PANC-1 cells (setting [5]) and in the assay with PANC-1 cells (setting [6]) was greater than 1 µM in each case.
In the case of `CN[C@@H](C)C(=O)N[C@@H](CC(=O)NCC[C@H](NC(=O)[C@@H](NC(=O)[C@H](C)NC)C(C)(C)C)C(=O)N[C@@H]1CCCc2ccccc21)C(=O)N1CCC[C@H]1C(=O)N[C@@H]1CCCc2ccccc21` [Compound 200], the IC50 in the assay on PANC-1 cells (setting [4]) is greater than 1 µM; with PANC-1 cells (setting [5]), 0.046 µM; with PANC-1 cells (setting [6]) it was 0.084 µM.
